Source: PubChem BioAssay AID1963869 (Molecular Pharmacology Branch, DTP, NCI, 2024)

Test system: KRAS patient-derived spheroids with HUVEC/MSC, viability
Assay: Anticancer human tumor 323965-272-R-J2-PDC patient-derived pancreatic carcinoma cell line growth inhibition [KRAS2]
Settings: for IC50: curve of first compound; for viability, T/C: stronger effect = lower value
Text: Multicellular complex tumor spheroid response to RAS pathway inhibitors in combination with a targeted agents in patient-derived cell lines with oncogenic KRAS variants from multiple cancer types
A high-throughput screen of multi-cell type tumor spheroids was designed to identify active combinations of targeted small molecules and KRAS pathway inhibitors. Complex spheroids include a stromal component modeled by human endothelial cells (HUVEC) and fibroblasts modeled by human mesenchymal stem cells (MSCs). The concentration ranges selected for each drug and investigational agent were based upon clinically achievable concentrations if the clinical Cmax of the agent was known.
Compounds. The drugs and investigational agents: BI-3406 (NSC825286), BAY-293 (NSC824723), batoprotafib (TNO155; NSC825523), sotorasib (AMG 510; NSC818433), MRTX1257 (NSC819558), elimusertib (BAY 1895344; NSC800525), molibresib (GSK525762; NSC774829), temuterkib (LY3214996; NSC803410), venetoclax (NSC766270), alisertib (NSC759677), olaparib (NSC753686), talazoparib (NSC767125), erdafitinib (NSC781556), ipatasertib (NSC767898), cabozantinib (NSC761068), nintedanib (NSC756659), abemaciclib (NSC768073), docetaxel (NSC628503), trametinib (NSC758246), and sapanisertib (NSC764658) were obtained from the National Cancer Institute (NCI) Developmental Therapeutics Program Chemical Repository. The FDA-approved anticancer drug set is available from the Developmental Therapeutics Program. […] The stock solutions were prepared in dimethyl sulfoxide (DMSO, Sigma-Aldrich, St. Louis, MO, cat. D2650) at 800-fold the tested concentration and stored at -70 degrees C prior to their use. All drugs and investigational agents were tested over a range starting from a high concentration at or near the clinical Cmax and decreasing in half-log increments. If the clinical Cmax for an agent had not been determined, the highest concentration tested was 10 microM.
Cell Culture. All cells were maintained in an incubator at 37 degrees C and 5% CO2 with 95% humidity. The PDC lines were cultured according to standard operating procedures established by the NCI PDMR (https://pdmr.cancer.gov/sops/default.htm). Briefly, all PDCs were thawed and cultured in Matrigel-coated flasks prepared with a working solution of 1X Ham's F-12 nutrient mix, without supplementation (Invitrogen, Waltham, MA, cat. 11765054), 100 U/mL penicillin-streptomycin (Invitrogen, cat. 15140122), and 2.5% Matrigel (Corning Inc., Corning, NY, cat. 354248) for the first three passages. All PDCs were cultured in complete DMEM/F-12 media containing advanced DMEM/F-12 (Invitrogen, cat. 12634028), 4.9% defined fetal bovine serum, heat inactivated (HyClone Laboratories Inc., Logan, UT, cat. SH30070.03HI), 389 ng/mL hydrocortisone (Sigma-Aldrich, cat. H4001), 9.7 ng/mL human EGF recombinant protein (Invitrogen, cat. PHG0313), 23.4 microg/mL adenine (Sigma-Aldrich, cat. A2786), 97.3 U/mL penicillin-streptomycin (Invitrogen, cat. 15140122), 1.9 mM L-glutamine (Invitrogen, cat. 25030081), and 9.7 microM Y-27632 dihydrochloride (Tocris Bioscience, Bristol, United Kingdom, cat. 1254). The PDCs were cultured in complete DMEM/F12 media without 9.7 microM Y-27632 dihydrochloride for at least two passages prior to the screen. The established cell line HOP-62 was cultured in RPMI 1640 medium, HEPES (Invitrogen, cat. 22400105) with 10% defined fetal bovine serum (HyClone Laboratories Inc., cat. SH30070.03) and 2 mM L-glutamine (Invitrogen, cat. 25030081). The pooled donor HUVEC were cultured in endothelial cell growth medium 2 (PromoCell, Heidelberg, Germany, cat. C-22011) and the hMSC were cultured in mesenchymal stem cell growth medium 2 (PromoCell, cat. C-28009). For all experiments, HUVEC and hMSC were used at passages </=5, while the malignant cell lines were used at passages </=15. […]

[1] = second compound 0.1 µM, first compound 0.000316 µM
[2] = second compound 0.1 µM, first compound 0.001 µM
[3] = second compound 0.1 µM, first compound 0.00316 µM
[4] = second compound 0.1 µM, first compound 0.01 µM
[5] = second compound 0.1 µM, first compound 0.0316 µM
[6] = second compound 0.1 µM, first compound 0.1 µM
[7] = second compound 0.316 µM, first compound 0.000316 µM
[8] = second compound 0.316 µM, first compound 0.001 µM
[9] = second compound 0.316 µM, first compound 0.00316 µM
[10] = second compound 0.316 µM, first compound 0.01 µM
[11] = second compound 0.316 µM, first compound 0.0316 µM
[12] = second compound 0.316 µM, first compound 0.1 µM
[13] = second compound 1 µM, first compound 0.000316 µM
[14] = second compound 1 µM, first compound 0.001 µM
[15] = second compound 1 µM, first compound 0.00316 µM
[16] = second compound 1 µM, first compound 0.01 µM
[17] = second compound 1 µM, first compound 0.0316 µM
[18] = second compound 1 µM, first compound 0.1 µM
[19] = second compound 3.16 µM, first compound 0.000316 µM
[20] = second compound 3.16 µM, first compound 0.001 µM
[21] = second compound 3.16 µM, first compound 0.00316 µM
[22] = second compound 3.16 µM, first compound 0.01 µM
[23] = second compound 3.16 µM, first compound 0.0316 µM
[24] = second compound 3.16 µM, first compound 0.1 µM
[25] = second compound 10 µM, first compound 0.000316 µM
[26] = second compound 10 µM, first compound 0.001 µM
[27] = second compound 10 µM, first compound 0.00316 µM
[28] = second compound 10 µM, first compound 0.01 µM
[29] = second compound 10 µM, first compound 0.0316 µM
[30] = second compound 10 µM, first compound 0.1 µM
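Note: spheroids exposed to agents for 7 days.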
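Throughout, for viability, T/C: 100% = DMSO vehicle control viability.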

Structure (SMILES): CC(C)n1nc(-c2ccc3oc(N)nc3c2)c2c(N)ncnc21 + C=CC(=O)N1CCN(c2nc(=O)n(-c3c(C)ccnc3C(C)C)c3nc(-c4c(O)cccc4F)c(F)cc23)C(C)C1
- IC50 (second compound 0.1 µM): 0.446 nM
- IC50 (second compound 0.316 µM): 0.394 nM
- IC50 (second compound 1 µM): 0.514 nM
- IC50 (second compound 3.16 µM): 0.381 nM
- IC50 (second compound 10 µM): < 0.316 nM
- viability, T/C [1]: 53.7%
- viability, T/C [2]: 41.4%
- viability, T/C [3]: 28.3%
- viability, T/C [4]: 19.1%
- viability, T/C [5]: 15.9%
- viability, T/C [6]: 12.3%
- viability, T/C [7]: 53.2%
- viability, T/C [8]: 37.8%
- viability, T/C [9]: 30.5%
- viability, T/C [10]: 22.1%
- viability, T/C [11]: 14.8%
- viability, T/C [12]: 12.5%
- viability, T/C [13]: 56.9%
- viability, T/C [14]: 41.1%
- viability, T/C [15]: 28.6%
- viability, T/C [16]: 19.3%
- viability, T/C [17]: 15.6%
- viability, T/C [18]: 13.3%
- viability, T/C [19]: 51.6%
- viability, T/C [20]: 41.9%
- viability, T/C [21]: 29%
- viability, T/C [22]: 17.5%
- viability, T/C [23]: 13.7%
- viability, T/C [24]: 12.3%
- viability, T/C [25]: 48.8%
- viability, T/C [26]: 36.3%
- viability, T/C [27]: 24.1%
- viability, T/C [28]: 19.4%
- viability, T/C [29]: 12.4%
- viability, T/C [30]: 12.7%

Structure (SMILES): CC1(C)CCC(CN2CCN(c3ccc(C(=O)NS(=O)(=O)c4ccc(NCC5CCOCC5)c([N+](=O)[O-])c4)c(Oc4cnc5[nH]ccc5c4)c3)CC2)=C(c2ccc(Cl)cc2)C1 + C=CC(=O)N1CCN(c2nc(OCC3CCCN3C)nc3c2CCN(c2cccc4cccc(C)c24)C3)CC1CC#N
- IC50 (second compound 0.0316 µM): 1380 nM
- IC50 (second compound 0.1 µM): 1360 nM
- IC50 (second compound 0.316 µM): 1120 nM
- IC50 (second compound 1 µM): 1030 nM
- IC50 (second compound 3.16 µM): < 31.6 nM
- viability, T/C (second compound 0.0316 µM, first compound 0.0316 µM): 65.2%
- viability, T/C (second compound 0.0316 µM, first compound 0.1 µM): 69.2%
- viability, T/C (second compound 0.0316 µM, first compound 0.316 µM): 67.2%
- viability, T/C (second compound 0.0316 µM, first compound 1 µM): 66.6%
- viability, T/C (second compound 0.0316 µM, first compound 3.16 µM): 6.91%
- viability, T/C (second compound 0.0316 µM, first compound 10 µM): 1.68%
- viability, T/C [5]: 68.2%
- viability, T/C [6]: 67.1%
- viability, T/C (second compound 0.1 µM, first compound 0.316 µM): 60.1%
- viability, T/C (second compound 0.1 µM, first compound 1 µM): 67.6%
- viability, T/C (second compound 0.1 µM, first compound 3.16 µM): 7.16%
- viability, T/C (second compound 0.1 µM, first compound 10 µM): 1.62%
- viability, T/C [11]: 59.6%
- viability, T/C [12]: 61.6%
- viability, T/C (second compound 0.316 µM, first compound 0.316 µM): 61.6%
- viability, T/C (second compound 0.316 µM, first compound 1 µM): 54.9%
- viability, T/C (second compound 0.316 µM, first compound 3.16 µM): 3.92%
- viability, T/C (second compound 0.316 µM, first compound 10 µM): 2.34%
- viability, T/C [17]: 62.1%
- viability, T/C [18]: 61.9%
- viability, T/C (second compound 1 µM, first compound 0.316 µM): 55.6%
- viability, T/C (second compound 1 µM, first compound 1 µM): 51.2%
- viability, T/C (second compound 1 µM, first compound 3.16 µM): 2.41%
- viability, T/C (second compound 1 µM, first compound 10 µM): 0.74%
- viability, T/C [23]: 7.81%
- viability, T/C [24]: 6.48%
- viability, T/C (second compound 3.16 µM, first compound 0.316 µM): 3.08%
- viability, T/C (second compound 3.16 µM, first compound 1 µM): 0.59%
- viability, T/C (second compound 3.16 µM, first compound 3.16 µM): 0.43%
- viability, T/C (second compound 3.16 µM, first compound 10 µM): 0.18%

Structure (SMILES): CN(C)C/C=C/C(=O)Nc1cc2c(Nc3ccc(F)c(Cl)c3)ncnc2cc1O[C@H]1CCOC1 + CNCc1ccccc1-c1csc(C(C)Nc2nc(C)nc3cc(OC)c(OC)cc23)c1
- IC50 (second compound 0.1 µM): > 100 nM
- IC50 (second compound 0.316 µM): > 100 nM
- IC50 (second compound 1 µM): > 100 nM
- IC50 (second compound 3.16 µM): > 100 nM
- IC50 (second compound 10 µM): < 0.316 nM
- viability, T/C [1]: 91.6%
- viability, T/C [2]: 80.5%
- viability, T/C [3]: 94.3%
- viability, T/C [4]: 70.6%
- viability, T/C [5]: 59.6%
- viability, T/C [6]: 62.7%
- viability, T/C [7]: 83.8%
- viability, T/C [8]: 82.1%
- viability, T/C [9]: 74.3%
- viability, T/C [10]: 64.2%
- viability, T/C [11]: 59.2%
- viability, T/C [12]: 57.8%
- viability, T/C [13]: 82.3%
- viability, T/C [14]: 81.4%
- viability, T/C [15]: 75.2%
- viability, T/C [16]: 60.6%
- viability, T/C [17]: 63.3%
- viability, T/C [18]: 65.1%
- viability, T/C [19]: 73.8%
- viability, T/C [20]: 63.7%
- viability, T/C [21]: 79.1%
- viability, T/C [22]: 79.6%
- viability, T/C [23]: 47.2%
- viability, T/C [24]: 71.9%
- viability, T/C [25]: 0.21%
- viability, T/C [26]: 0.21%
- viability, T/C [27]: 1.04%
- viability, T/C [28]: 0.21%
- viability, T/C [29]: 0.2%
- viability, T/C [30]: 0.78%
